Data from US11072592B2, “Small molecules that enable cartilage rejuvenation” (The Regents of the University of California, priority 2015, dated 2021).
“Also recorded” adds a separate entry of the source. Read-outs that look alike come from different tables or passages of the source.

Columns and labels:
[1] = tested on: MAPK, AKT, NF-κB pathways; assay: Western blot of MAPK, AKT and NF-κB signaling in adult pig articular chondrocytes; type: cell-based; details: 24 hours
Protocol: (§1) FIGS. 30A-30B. […] (FIG. 30A) Adult pig articular chondrocytes were cultured for 24 hours with the indicated cytokines or RCGD 423 and the levels of pSTAT3 and MYC were measured with respect to histone H3. Representative data for other proteins in the MAPK (p38 and MEK1/2), AKT (phospho-AKT; pAKT) or NF-KB (NF-KB p65) are also shown. (FIG. 30B) Levels of transcription of genes indicative of a catabolic response were determined via quantitative PCR in adult pig articular chondrocytes treated with OSM, IL-6, TNF-α, LIF or RCGD 423. Data are represented at mean±SD.
(§2) Cartilage degeneration is generally considered a feed-forward process, in which small losses of chondrocytes result in microenvironmental changes including induction of an inflammatory response and other pro-catabolic events (Hunziker, 2002). In turn, these alterations in the joint milieu promote production of matrix degrading proteins including MMPs (collagenases) and proteins of the ADAMTS family (aggrecanases). LIF has been implicated in promoting this cycle of matrix destruction during the pathogenesis of osteoarthritis (Hui et al., 2000; Lotz et al., 1992), although its role in this process has been controversial. In order to better understand the mechanism of action of LIF, RCGD 423 and known pro-inflammatory cytokines in the promotion of degeneration, we stimulated adult pig articular chondrocytes with these molecules and quantitated the levels of activated downstream proteins that mediate the cellular signaling response (FIG. 30A).
(§3) Treated and non-treated ells were lysed in RIPA Lysis and Extraction Buffer (Pierce, Rockford, Ill.) containing protease inhibitors (Pierce) followed by sonication with a 15-second pulse at a power output of 2 using the VirSonic 100 (SP Industries Company, Warminster, Pa.). Protein concentrations were determined by BCA protein assay (Pierce). Proteins were resolved with SDS-PAGE utilizing 4-15% Mini-PROTEAN TGX Precast Gels and transferred to Trans-Blot Turbo Transfer Packs with a 0.2-μm pore-size nitrocellulose membrane. The SDS-PAGE running buffer, 4-15% Mini-PROTEAN TGX Precast Gels, Trans-Blot Turbo Transfer Packs with a 0.2-μm pore-size nitrocellulose membrane were purchased from Biorad (Hercules, Calif.). Nitrocellulose membranes were blocked in 5% nonfat milk in 0.05% (v/v) Tween 20 (PBST) (Corning, Manassas, Va.). Membranes were then incubated with primary antibodies phospho-STAT3 (#9131), MYC (#5605), NF-κB p65 (#D14E12), pAKT (#9272) Histone 3 (#9715) from Cell Signaling, (Danvers, Mass.); MEK1/2 (ab70613) and p38 (ab795) from Abcam (Cambridge, Mass.) overnight. After washing in PBS containing 0.05% (v/v) Tween 20 (PBST), membranes were incubated with Goat anti-Rabbit IgG (H+L) Secondary Antibody (Thermo Scientific Rockford, Ill.). After washing, membranes were developed with the Clarity Western ECL Blotting Substrate (Hercules, Calif.).

pSTAT3 and MYC = assay: Western blot of pSTAT3 and MYC in adult pig articular chondrocytes; type: cell-based; details: for levels of MYC / levels of pSTAT3: adult pig articular chondrocytes, treated vs untreated, relative to histone H3
Description: Only early passages of chondrocytes (passage 0-2) were used for experimentation to avoid de-differentiation and loss of cartilage phenotype (Wu et al., 2014). Cartilage explants were made using 1, 2 or 8 mm biopsy punch and wet weight of each explant determined prior to experimentation. For cell isolation cartilage tissue was digested as described previously (Wu et al., 2015). Postnatal paraffin embedded joint and growth plate specimens were kindly donated by Dr Marcel Karperien from the University of Twente (Netherlands) and Dr Nick Bernthal from University of California Los Angeles. All donated material was anonymous and carried no personal identifiers. Cell culture reagents were purchased from Life Technologies, Inc. (Grand Island, N.Y.). Growth factors LIF, OSM, IL-6, TNF-α, IL-1β were purchased from Life Technologies, Inc (Grand Island, N.Y.). STATTIC, 10058-F4, SCl44 hydrochloride, and CP-690550 were purchased from Sigma Aldrich (St. Louis, Mo.). RCGD 423 (N-(4-Bromophenyl)-4-phenyl-1,3-thiazol-2-amine) was synthesized and provided by MolPort (Riga, Latvia). Fetal, adult and pig chondrocytes were cultured in DMEM F12 medium containing 10% (vol/vol) fetal bovine serum and 1% Penicillin-Streptomycin (vol/vol) at 37° C. in a humidified atmosphere of 95% aid and 5% CO2. Media was replenished with DMEM F12 medium containing 1% (vol/vol) fetal bovine serum and 1% Penicillin-Streptomycin (vol/vol) once treatments were added. For 3-dimensional (3D) cell cultures adult human articular chondrocytes were incubated with or without RCGD 423 using 10% solution of Mebiol® hydrogel from Cosmo Bio (Carlsbad, Calif.) in X-vivo 15 serum free medium from Lonza (Walkersville, Md.) as described previously (Wu et al., 2014).
as §3

[2] = tested on: MMP13, ADAMTS4 and ADAMTS5; assay: Quantitative PCR of catabolic genes in adult pig articular chondrocytes; type: cell-based
Protocol: as §1, §2
Total RNA was extracted using RNeasy Micro Kit (QIAGEN, Valencia, Calif.) according to the manufacturer's protocol. Quantitative reverse transcription PCR was performed using Bio-Rad T100 Thermal Cycler (Bio-Rad, Hercules, Calif.). Primer sequences are available upon request.

BMPR1B+ chondrocytes = assay: Retention of BMPR1B+ chondrocytes in culture (flow cytometry); type: cell-based, pig
Protocol: FIG. 35. RCGD 423 Preserves BMPR1B+ Chondrocytes in Culture. Adult pig chondrocytes were cultured in the presence of various cytokines or RCGD 423 and the number of cells expressing BMPR1B were quantitated using flow cytometry. Know mitogens for cartilage, including PDGF-BB and FGF2, promoted dramatic loss of BMPR1B^+ cells. In contrast, RCGD 423 and LIF acted to maintain cells with the BMPR1B+ phenotype.
BMPR1B+LIFR+ human adult articular chondrocytes were sorted using FACS and deposited in 96-well culture plates at density 10,000 cells per well in DMEM/F12 culture medium (Invitrogen) supplemented with 1% FBS. Growth factors or RCGD 423 were added at the time of plating. After 1, 3 and 7 days cultures were re-analyzed with FACS using an antibody against BMPR1B.

[3] = tested on: fetal articular cartilage explants; assay: Apoptosis / survival in fetal articular cartilage explants (TUNEL, flow cytometry); type: cell-based, human; details: for fetal chondrocyte survival: Annexin V-FITC cell sorting; for apoptotic cells: fetal cartilage explants, inhibitor 24 hours
Protocol: (§4) FIGS. 26A-26J. LIF/STAT3/MYC signaling is prominent in fetal articular chondrocytes and can activate a fetal-like phenotype in adult cells. (FIG. 26A) Levels of phospho-STAT3 (pSTAT3) and MYC protein were quantitated in human fetal and adult articular chondrocytes relative to histone H3. (FIG. 26B) Effects of soluble LIF receptor (sLIFR) on MYC and pSTAT3 protein levels on fetal articular chondrocytes after 72 hours. (FIG. 26C) Detection of apoptotic cells using TUNEL staining and flow cytometry analysis of fetal articular cartilage explants cultured in the absence (control) or presence of a MYC (10058-F4) or STAT3 (STATTIC) inhibitor for 24 hours. (FIG. 26D) Quantification of proliferating cells via EdU incorporation in fetal articular cartilage explants and also by flow cytometry analysis for BrdU. Scale bars represent 100 μm. (FIG. 26E) Assessment of metabolic activity of human fetal articular chondrocytes cultured in the presence or absence of MYC or STAT3 inhibitors. (FIG. 26F) Migration capacity of fetal articular chondrocytes was assessed using a Transwell® assay in the absence or presence of MYC and STAT3 inhibitors. (FIG. 26G) Protein levels of MYC and pSTAT3 were measured in adult human articular chondrocytes with and without incubation with LIF. Data are shown normalized to histone H3. (FIG. 26H) Migratory capacity of adult human articular chondrocytes in a Transwell® assay measured in the presence or absence of LIF. (FIG. 26I) Single adult human articular chondrocytes were cultured with or without LIF for 5 weeks to allow detection of colony-forming cells. (FIG. 26J) Explants of adult pig articular cartilage were incubated with EdU in the presence or absence of LIF to detect proliferating cells. Scale bars represent 25 μm.
To assess the functional consequences of LIF signaling, explants of fetal cartilage were cultured with inhibitors of MYC or STAT3 (Schust et al., 2006) and then TUNEL stained; flow cytometry was used to quantitate the results of parallel experiments. […] MYC activity has been documented previously in cancer cell lines to regulate mitochondrial function (Fan et al., 2010). […]
TdT-mediated dUTP nick-end labeling (TUNEL) or EdU assays were performed by using in situ cell death detection kit (TUNEL, Roche Diagnostics GmbH, Germany) or Click-iT® Assay Kit obtained from Invitrogen (Carlsbad, Calif.), respectively, as described in the manufacturer's protocol. […] After staining sections were analyzed using fluorescent microscopy. Apoptosis was evaluated by flow cytometry with a Fortessa (BD Biosciences, San Jose, Calif.) cytometer using the Annexin V-FITC (Miltenyi Biotec, San Diego, Calif.) antibody. […]

[4] = tested on: fetal BMPR1B+ chondrocytes; assay: Clonogenic potential of fetal chondrocytes; type: cell-based, human
Description: FIGS. 12A-12D. […] Cell sorting results for control (FIG. 12A), p-STAT3 inhibitor (FIG. 12B) and c-MYC inhibitor (FIG. 12C). y-axis: FSC (forward scatter). x-axis: increasing concentration of Annexin V-FITC. (FIG. 12D) Histogram depicting % clonogenic cells (fetal BMPR1B+ chondrocytes) under: control, p-STAT3 and c-MYC inhibitor conditons.
To test the ability of LIF to stimulate LIFR^+ cells and cause their activation in situ, we exposed human adult articular cartilage cells to high doses of LIF for 72 hours (FIG. 5A).
For clonal assays cartilage cells were sorted by FACS and deposited into 96-well culture plates at 1 cell/well in DMEM/F12 culture medium supplemented with 1% FCS with or without LIF or RCGD 423. After 4 weeks clones (colonies with 50 cells or more) were counted using light microscopy in at least 300 wells for each culture condition.

fetal cartilage explants = assay: Proliferation (BrdU, EdU) in fetal cartilage explants; type: cell-based, human
Protocol: as §4, with “Data are shown normalized to histone H3.” left out, “(FIG. 26I) Single adult human articular chondrocytes were cultured with or without LIF for 5 weeks to allow detection of colony-forming cells. (FIG. 26J) Explants of adult pig articular cartilage were incubated with EdU in the presence or absence of LIF to detect proliferating cells. Scale bars represent 25 μm.” left out

[5] = tested on: human fetal articular chondrocytes; assay: Cellular metabolism (Seahorse), human fetal articular chondrocytes; type: cell-based
Protocol: The mitochondrial assay cellular oxygen consumption and mitochondrial function was carried out to measure basal respiration using XF24 instrument (Seahorse Biosciences) according to manufacturer instructions. Tested cells (100,000 cells per well) we plated into 24-well test plates 48 hours prior to experimentation. Oxygen consumption rates and extracellular acidification rates were measured every 10 minutes for up to 60 minutes (Rate 1-6).

| Compound | activation of AKT [1] | activation of the MAPK pathway [1] | levels of MYC (pSTAT3 and MYC) | levels of pSTAT3 (pSTAT3 and MYC) | transcription of matrix degrading enzymes (MMP13, ADAMTS4 and ADAMTS5) [2] | fetal chondrocyte survival [3] | apoptotic cells [3] | clonogenic / clonal potential of fetal chondrocytes [4] | incorporation of BrdU and EdU (fetal cartilage explants) | glycolysis [5] | other results |
| --- | --- | --- | --- | --- | --- | --- | --- | --- | --- | --- | --- |
| TNF-α | strong activation | strong activation | inhibit accumulation | inhibit accumulation | upregulation |  |  |  |  |  | NF-κB protein [1]: increased; increases in pSTAT3 and MYC in the presence of RCGD 423 (pSTAT3 and MYC; co-stimulation of cytokine and RCGD 423): completely suppressed; also recorded: prevents the increases |
| FGF2: known mitogen for cartilage |  |  |  |  |  |  |  |  |  |  | BMPR1B+ chondrocytes in culture (BMPR1B+ chondrocytes): dramatic loss |
| IL-6: IL-6 family cytokine | stimulated the activation | stimulated the activation | increase | increase | neither cytokine resulted in substantial transcriptional upregulation |  |  |  |  |  |  |
| O=[N+]([O-])c1ccc2c(c1)S(=O)(=O)C=C2 [STATTIC] |  |  |  |  |  | markedly reduced | strongly significant increases | dramatically reduced | greatly reduced | unaffected | clonogenic / clonal potential of fetal chondrocytes ([4]; listed as p-STAT3 inhibitor): markedly reduced |
| CCc1ccc(/C=C2/SC(=S)NC2=O)cc1 [10058-F4] |  |  |  |  |  | markedly reduced | strongly significant increases | markedly reduced | greatly reduced | unaffected |  |
